In ChEMBL document CHEMBL5143563, “Discovery of DS-3801b, a non-macrolide GPR38 agonist with N-methylanilide structure” (Bioorg Med Chem Lett, 2022):

Columns and labels:
Motilin receptor [1] = molecular target: T1, Motilin receptor (Homo sapiens, UniProt O43193); test: Agonist activity at human GPR38 expressed in COS-7 cells; format: functional, cell-based
[2] = Agonist activity at rabbit GPR38 expressed in COS-7 cells; format: cell-based; conditions: Oryctolagus cuniculus
CYP3A4 [3] = molecular target: T2, CYP3A4 (Homo sapiens, UniProt P08684); test: Inhibition of CYP3A4 in human liver microsomes assessed as remaining activity; format: ADME, Microsome; set-up: concentration or dose not given beside the values
[4] = Lipophilicity, logD of the compound at pH 7.4; conditions: buffer
Motilin receptor [5] = molecular target: T1, Motilin receptor; test: Potency index, ratio of GSK962040 EC50 to test compound EC50 for human GPR38 expressed in COS-7 cells; format: functional, cell-based
[6] = Ex vivo agonist activity at GPR38 in rabbit duodenum muscle tissue assessed as intestinal contractile activity; format: tissue-based, Oryctolagus cuniculus
Oryctolagus cuniculus = organism: Oryctolagus cuniculus; test: Potency index, ratio of GSK962040 EC50 to test compound EC50 for Ex vivo agonist activity at GPR38 in rabbit duodenum muscle tissue; format: tissue-based
[7] = Effective permeability of the compound at pH 5 by PAMPA assay; format: ADME; conditions: read-out: Peff
[8] = Effective permeability of the compound at pH 7.4 by PAMPA assay; format: ADME; conditions: read-out: Peff
[9] = Protein binding in human; format: ADME; conditions: read-out: PB (converted)
[10] = Protein binding in rabbit; format: ADME, Oryctolagus cuniculus; conditions: read-out: PB (converted)
CYP1A2 = molecular target: T3, CYP1A2 (Homo sapiens, UniProt P05177); test: Inhibition of CYP1A2 (unknown origin) at 10 uM; format: ADME
T3 sequence (P05177 whole entry): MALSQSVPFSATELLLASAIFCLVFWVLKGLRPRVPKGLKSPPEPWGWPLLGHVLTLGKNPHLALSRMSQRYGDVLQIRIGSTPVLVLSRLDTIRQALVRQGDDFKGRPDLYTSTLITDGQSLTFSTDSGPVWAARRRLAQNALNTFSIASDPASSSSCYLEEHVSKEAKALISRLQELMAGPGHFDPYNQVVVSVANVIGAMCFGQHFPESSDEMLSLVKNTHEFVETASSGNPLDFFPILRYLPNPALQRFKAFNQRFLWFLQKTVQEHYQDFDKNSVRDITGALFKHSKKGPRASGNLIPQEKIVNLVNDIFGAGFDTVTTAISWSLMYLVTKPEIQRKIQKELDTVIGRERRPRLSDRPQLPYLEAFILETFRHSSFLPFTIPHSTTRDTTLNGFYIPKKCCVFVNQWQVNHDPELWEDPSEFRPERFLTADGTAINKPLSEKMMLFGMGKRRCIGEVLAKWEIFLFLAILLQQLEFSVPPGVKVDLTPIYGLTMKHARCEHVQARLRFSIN

CYP2C9 = CYP2C9 (Homo sapiens, UniProt P11712); test: Inhibition of CYP2C9 (unknown origin) at 10 uM; format: ADME
CYP2D6 = CYP2D6 (Homo sapiens, UniProt P10635); test: Inhibition of CYP2D6 (unknown origin) at 10 uM; format: ADME
CYP3A4 [11] = molecular target: T2, CYP3A4; test: Inhibition of CYP3A4 (unknown origin) at 10 uM; format: ADME

T1 sequence (O43193 whole entry): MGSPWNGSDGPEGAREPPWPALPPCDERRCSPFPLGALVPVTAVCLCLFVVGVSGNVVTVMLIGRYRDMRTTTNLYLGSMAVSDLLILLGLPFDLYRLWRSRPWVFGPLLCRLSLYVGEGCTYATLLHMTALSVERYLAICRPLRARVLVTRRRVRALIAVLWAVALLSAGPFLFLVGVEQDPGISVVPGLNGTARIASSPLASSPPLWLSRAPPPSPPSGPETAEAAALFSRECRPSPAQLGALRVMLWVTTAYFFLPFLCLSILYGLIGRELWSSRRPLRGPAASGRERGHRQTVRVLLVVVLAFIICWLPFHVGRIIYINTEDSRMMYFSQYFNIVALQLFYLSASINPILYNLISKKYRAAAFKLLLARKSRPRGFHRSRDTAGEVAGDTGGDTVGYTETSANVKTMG
T2 sequence (P08684 whole entry): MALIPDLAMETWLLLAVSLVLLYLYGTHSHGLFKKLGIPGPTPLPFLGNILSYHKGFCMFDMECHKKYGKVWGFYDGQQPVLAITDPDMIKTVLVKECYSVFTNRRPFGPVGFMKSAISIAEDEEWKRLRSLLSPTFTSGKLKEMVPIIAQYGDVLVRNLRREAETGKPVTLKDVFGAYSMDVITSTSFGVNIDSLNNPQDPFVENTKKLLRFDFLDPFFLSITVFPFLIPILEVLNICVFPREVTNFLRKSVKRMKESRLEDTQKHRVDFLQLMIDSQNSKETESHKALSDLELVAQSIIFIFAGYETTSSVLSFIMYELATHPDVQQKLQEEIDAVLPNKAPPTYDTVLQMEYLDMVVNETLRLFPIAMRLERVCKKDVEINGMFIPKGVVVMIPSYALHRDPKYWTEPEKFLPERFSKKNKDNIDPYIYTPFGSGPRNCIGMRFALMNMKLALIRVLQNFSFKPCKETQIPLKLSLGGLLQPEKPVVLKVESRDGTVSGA
Chain of CYP2D6 (P10635 whole entry): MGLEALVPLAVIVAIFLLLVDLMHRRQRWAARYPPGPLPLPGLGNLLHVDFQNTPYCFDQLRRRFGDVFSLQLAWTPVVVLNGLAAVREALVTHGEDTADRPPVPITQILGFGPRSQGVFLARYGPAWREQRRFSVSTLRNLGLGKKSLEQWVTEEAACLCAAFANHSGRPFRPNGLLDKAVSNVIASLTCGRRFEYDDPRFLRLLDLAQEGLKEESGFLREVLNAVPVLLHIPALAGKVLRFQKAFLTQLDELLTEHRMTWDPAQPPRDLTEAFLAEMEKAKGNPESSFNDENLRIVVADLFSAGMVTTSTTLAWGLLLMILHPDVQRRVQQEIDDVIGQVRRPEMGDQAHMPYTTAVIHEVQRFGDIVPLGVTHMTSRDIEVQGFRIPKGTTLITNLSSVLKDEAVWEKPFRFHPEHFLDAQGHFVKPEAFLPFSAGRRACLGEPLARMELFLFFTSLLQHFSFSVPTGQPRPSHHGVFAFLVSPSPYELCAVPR
Chain of CYP2C9 (P11712 whole entry): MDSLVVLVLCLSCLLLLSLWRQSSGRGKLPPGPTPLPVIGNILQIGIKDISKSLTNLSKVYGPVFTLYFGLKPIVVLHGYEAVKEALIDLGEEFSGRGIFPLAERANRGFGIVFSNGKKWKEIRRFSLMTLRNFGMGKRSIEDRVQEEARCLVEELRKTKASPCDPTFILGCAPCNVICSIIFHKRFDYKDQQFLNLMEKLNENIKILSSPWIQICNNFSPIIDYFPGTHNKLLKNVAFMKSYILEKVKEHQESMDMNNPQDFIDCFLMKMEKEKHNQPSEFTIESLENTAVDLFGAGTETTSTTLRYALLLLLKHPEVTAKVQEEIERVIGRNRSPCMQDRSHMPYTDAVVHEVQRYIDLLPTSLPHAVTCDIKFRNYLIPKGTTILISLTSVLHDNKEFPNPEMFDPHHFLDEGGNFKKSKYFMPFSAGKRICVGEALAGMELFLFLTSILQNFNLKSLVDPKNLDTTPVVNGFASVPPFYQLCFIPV

Row | SMILES | EC50 (Motilin receptor [1]) [nM] | EC50 [2] [nM] | activity (CYP3A4 [3]) [%] | logD [4] | other results
1 | Cc1cc(N(C)C(=O)[C@H]2CC[C@H](Oc3ccc(F)c(CO)c3)CC2)ccc1CN1CCN[C@@H](C)C1 | 7.5 | 0.62 | 54 | 1.6 | 
2 | Cc1cc(N(C)C(=O)[C@H]2CC[C@H](Oc3ccc(F)cc3)CC2)ccc1CN1CCNCC1 | 46 | 1.3 | 82 |  | 
3 | C[C@H]1CN(Cc2ccc(-c3cccnc3N3CCC(Nc4cccc(F)c4)CC3)cc2)CCN1 | 18 | 1.7 |  |  | 
4 | C[C@@H]1CN(Cc2ccc(-c3cccnc3C(=O)N3CCC(Cc4ccc(F)cc4)CC3)cc2)C[C@H](C)N1 | 51 | 3.8 |  |  | Ratio EC50 (Motilin receptor [5]): 20
5 | C[C@H]1CN(Cc2ccc(NC(=O)[C@H]3CC[C@H](Oc4ccc(F)cc4)CC3)cc2)CCN1 | > 10000 | > 10000 |  |  | 
6 | Cc1cc(N(C)C(=O)[C@H]2CC[C@H](Oc3ccc(F)cc3)CC2)ccc1CN1CCN[C@@H](C)C1 | 2.1 | 0.21 | 32 | 2.5 | 
7 | CC[C@H]1CN(Cc2ccc(N(C)C(=O)[C@H]3CC[C@H](Oc4ccnc(C#N)c4)CC3)cc2C)CCN1 | 11 | 1.2 | 68 | 1 | EC50 [6]: 4.8 nM
8 | C[C@H]1CN(Cc2ccc(N(C)C(=O)[C@H]3CC[C@H](Oc4ccc(F)cc4)CC3)cc2)CCN1 | 55 | 2.6 | 44 |  | EC50 [6]: 28 nM
9 | Cc1cc(N(C)C(=O)[C@H]2CC[C@H](Oc3ccc(F)cn3)CC2)ccc1CN1CCN[C@@H](C)C1 | 4.6 | 0.26 | 47 | 1.9 | 
10 | CC[C@H](C)[C@H](NC(=O)[C@@H]1CCCN1C(=O)[C@@H](NC(=O)[C@@H](N)Cc1ccccc1)C(C)C)C(=O)N[C@@H](Cc1ccccc1)C(=O)N[C@H](C(=O)N[C@@H](Cc1ccc(O)cc1)C(=O)NCC(=O)N[C@@H](CCC(=O)O)C(=O)N[C@@H](CC(C)C)C(=O)N[C@@H](CCC(N)=O)C(=O)N[C@@H](CCCNC(=N)N)C(=O)N[C@@H](CCSC)C(=O)N[C@@H](CCC(N)=O)C(=O)N[C@@H](CCC(=O)O)C(=O)N[C@@H](CCCCN)C(=O)N[C@@H](CCC(=O)O)C(=O)N[C@@H](CCCNC(=N)N)C(=O)N[C@@H](CC(N)=O)C(=O)N[C@@H](CCCCN)C(=O)NCC(=O)N[C@@H](CCC(N)=O)C(=O)O)[C@@H](C)O | 0.97 | 0.16 |  |  | EC50 [6]: 0.23 nM
11 | CC[C@H]1CN(Cc2ccc(N(C)C(=O)[C@H]3CC[C@H](Oc4ccc(F)cc4)CC3)cc2C)CCN1 | 350 |  | 29 |  | 
12 | Cc1cc(CN2CCN[C@@H](C)C2)ccc1N(C)C(=O)[C@H]1CC[C@H](Oc2ccc(F)cc2)CC1 | 240 |  | 40 |  | 
13 | Cc1cc(N(C)C(=O)[C@H]2CC[C@H](Oc3cc(CO)ccc3C)CC2)ccc1CN1CCN[C@@H](C)C1 | 5.6 | 1 | 54 |  | 
14 | C[C@H]1CN(Cc2ccc(CC(=O)N3CCC(Nc4cccc(F)c4)CC3)cc2)CCN1 [CAMICINAL] | 970 | 42 |  |  | EC50 [6]: 82.6 nM
15 | Cc1cc(N(C)C(=O)[C@H]2CC[C@H](Oc3ccc(Cl)c(CO)c3)CC2)ccc1CN1CCN[C@@H](C)C1 | 1.8 | 0.13 | 56 |  | 
16 | CCOCc1cccc(N[C@H]2CC[C@H](C(=O)N(C)c3ccc(CN4CCN[C@@H](C)C4)c(C)c3)CC2)c1 | 2.6 |  | 61 | 2.5 | 
17 | C[C@H]1CN(Cc2ccc(N(C)C(=O)[C@H]3CC[C@H](Oc4ccc(F)cc4)CC3)cc2Cl)CCN1 | 2 | 0.18 | 23 |  | 
18 | Cc1cc(N(C)C(=O)[C@H]2CC[C@H](Oc3cccc(C(=O)O)c3)CC2)ccc1CN1CCN[C@@H](C)C1 | > 10000 | 1300 | 101 | -0.4 | 
19 | Cc1cc(N(C)C(=O)[C@H]2CC[C@H](Oc3cccc(CO)c3)CC2)ccc1CN1CCN[C@@H](C)C1 | 5.3 | 1.3 | 74 | 1.3 | EC50 [6]: 7.3 nM; Ratio EC50 (Oryctolagus cuniculus): 11; Papp [7]: 1.5 ×10⁻⁶ cm/s; Papp [8]: 48 ×10⁻⁶ cm/s; fraction unbound [9]: 0.228; fraction unbound [10]: 0.335; inhibition at 10 µM (CYP1A2): 13%; inhibition at 10 µM (CYP2C9): 5.3%; inhibition at 10 µM (CYP2D6): 8.8%; inhibition at 10 µM (CYP3A4 [11]): 3.1%
20 | Cc1cc(N(C)C(=O)[C@H]2CC[C@H](Oc3cccc(CC(=O)NC(C)C)c3)CC2)ccc1CN1CCN[C@@H](C)C1 | 1.6 | 0.26 | 68 | 1.8 | 
21 | Cc1cc(N(C)C(=O)[C@H]2CC[C@H](Oc3cccc(CC(C)(C)O)c3)CC2)ccc1CN1CCN[C@@H](C)C1 | 4.3 | 1.1 | 50 | 2 | 
22 | Cc1cc(N(C)C(=O)[C@H]2CC[C@H](Oc3cccc(CCO)c3)CC2)ccc1CN1CCN[C@@H](C)C1 | 4.7 | 0.51 | 60 | 1.3 | 
